row,Compound,melting point
1,CC(C)(C)c1ccccc1N1CCN(C(=O)C2CCC(=O)N2)CC1 (stereo unspecified),290 °C
2,O=C1CCC(N2Cc3c(OCc4ccc(CN5CCN(c6ccccn6)CC5)cc4)cccc3C2=O)C(=O)N1 (stereo unspecified),165 to 167 °C
3,O=C1Nc2cccc(C(F)(F)F)c2C(=O)N2CCC[C@@H]12,176 to 178 °C
4,CCCNC(=O)C(CCC(=O)NCCCOC(C)=O)NC(=O)C=Cc1ccco1 (stereo unspecified),154 to 156 °C
5,CCO/N=C1\CCc2ccccc2C1=Cc1ccc(S(C)(=O)=O)cc1,151 to 152 °C
6,CCc1cccc(NCCCc2cn(C(c3ccccc3)(c3ccccc3)c3ccccc3)cn2)c1,189 to 191 °C
7,O=C(NC(Cc1ccccc1)C(=O)O)c1ccc2cc(OCc3ccccc3)ccc2c1 (stereo unspecified),207 °C
8,O=C1CCC(N2Cc3c(OCc4ccccc4CN4CCOCC4)cccc3C2=O)C(=O)N1 (stereo unspecified),188 to 190 °C
9,CNC(=O)c1ccc(N2CCN(Cc3cc(Cc4ccccc4)c4c(c3)NC(=O)C(C)O4)CC2)cc1 (stereo unspecified),227 to 231 °C
10,CC1CCc2[nH]c3ccc(Br)cc3c2C1 (stereo unspecified),108 to 110 °C
11,CCCCCN1C(=O)C(=O)c2cc(SCCCc3ccc(C(=O)O)cc3)ccc21,145 to 146 °C
12,CCC(=O)N(C)c1nc(Cl)c([N+](=O)[O-])s1,132 to 133 °C
13,COc1ccc(-c2c(Br)c(CBr)nc3sc4c(c23)CCN(Cc2ccccc2)C4)cc1,177 to 178 °C
14,CC(C)n1cc(-c2nc(C#N)c(N)nc2-c2ccc(F)cc2)ccc1=O,207 °C
15,COC(=O)[C@H]1O[C@H]1C(=O)N(CC(=O)OC(C)(C)C)c1ccc(OC)cc1,89 °C
16,COc1ccc(N2CCN(c3c(C)c4c(c(C)c3Br)OC(C)(C)C4)CC2)cc1,180 to 181 °C
17,COc1ccc(CC(CC(=O)O)CC(=O)O)cc1,109 to 110 °C
18,NC(CO)(CO)CCCCCCCCCCCCCc1ccccc1,61 to 64 °C
19,O=C(C=CC=Cc1ccccc1)c1cccc([N+](=O)[O-])c1,58 to 60 °C
20,N#Cc1ccc(C(N)=O)s1,222 to 223 °C
21,O=C(SC[C@@H](SC(=O)c1ccccc1)C(=O)N1CCC[C@H]1C(=O)O)c1ccccc1,195 to 196 °C
22,O=C(O)CN(CCN(CC(=O)O)CC(=O)O)CCN(CC(=O)O)CC(=O)NCCC(O)(P(=O)(O)O)P(=O)(O)O,145 °C
23,CC(=O)OC12CC3CC(CC(C3)C1)C2,144 to 145 °C
24,COc1cc(OC)c2c(=O)[nH]c(-c3ccc(OCCNC(C)C)c(-c4ccc(S(C)(=O)=O)cc4C(F)(F)F)n3)nc2c1,199 to 201 °C
25,O=C(O)c1ccc(C(c2ccc(C(=O)O)cc2)(c2ccc(C(=O)O)cc2)C(F)(F)F)cc1,366 to 367 °C
26,CC(=O)N[C@@H]1CCCC[C@H]1NS(=O)(=O)c1ccc(C)cc1 (relative stereo),174 to 176 °C
27,COc1ccccc1C1CCN(C[C@@H](CC2CCCCC2)NC(=O)C2CCCCC2)CC1,100 to 103 °C
28,C(=Cc1ccccc1)C=NC1CCOc2ccccc21 (stereo unspecified),106 to 107 °C
29,C#Cc1c(C(C)C)cc(-c2ccccc2)nc1-c1ccc(F)cc1,121 to 124 °C

# Now from value to compound:
row,melting point,Compound
1,98 to 100 °C,COc1cccc(CCNCCc2c[nH]cn2)c1
2,172 to 173 °C,O=C(O)CCc1oc(Sc2ccccn2)nc1-c1ccc(Cl)cc1
3,177 to 178 °C,CC(C)(C)N1CC(=O)Nc2ccc(Cl)cc2C1=O
4,165 to 166 °C,COC(=O)c1cc(-c2nc(COc3ccc(COc4nn(-c5ccccc5)cc4C=O)cc3OC)c(C)o2)ccc1OC
5,88 to 91 °C,COc1cc(Nc2c(C#N)cnc3cc(-c4cccc(CN5CCOCC5)c4)ccc23)c(Cl)cc1Cl
6,102 to 104 °C,COC(=O)c1cc(Oc2ccc(F)cc2F)ncc1N
7,> 200 °C,Nc1ccc(-c2cnc3c(c2)N(Cc2c(F)ccc(F)c2Cl)CCN3)cn1
8,82 to 84 °C,COC(=O)c1cc(I)cc(C)c1O
9,112 to 115 °C,COc1ccc(C(=O)c2cc(Cl)ccc2N)c(O)c1OC
10,255 to 257 °C,O=C(O)c1oc2cc(O)ccc2c(=O)c1C(=O)O
11,203 to 205 °C,CCN(CC)N(C(C)=O)c1nc2cc3nc(N)sc3cc2s1
12,248 to 250 °C,COC(=O)c1cc(N2CCNC2=O)c2cc(Cc3ccc(F)cc3)cnc2c1O
13,271 to 273 °C,COc1ccc(C(=O)Nc2nc(=O)c3cnn4c3n2CC=C4c2cccc(C(F)(F)F)c2)cc1
14,132 to 134 °C,Cc1nc(=O)n(C)cc1Cl
15,244 to 245 °C,Nc1c(-c2ccc(-c3ccccc3)cc2)nc2ccc(Cl)cc2c1C(=O)O
16,63 to 65 °C,CN(Cc1ccc(OC(C)(C)C(=O)O)cc1)c1ccc(Cl)cc1
17,137 to 139 °C,Cc1ncn(C(=O)Nc2cc(Cl)cc(Cl)c2)c1Cl
18,168 °C,Cc1cc(Cl)ccc1OCC(=O)N1Cc2ccc(C(=O)c3ccc(C(C)(C)C)cc3)n2Cc2ccccc21
19,191 °C,COc1ccc(S(=O)(=O)N(Cc2cccnc2)c2c(C)cc(-c3cccs3)cc2C(=O)O)cc1
20,122 to 124 °C,O=[N+]([O-])c1ccc2nnn(OS(=O)(=O)c3ccccc3)c2c1
21,121 to 123 °C,O=C(/C=C/c1ccc2ccccc2c1)N1CCOC1=O

row,melting point,Compound
1,191 to 193 °C,CCCc1nc2ccc(NS(C)(=O)=O)cc2n1Cc1ccccc1Cl
2,220 to 221 °C,CNC(=O)c1cc(-c2cnn(C)c2)cc(F)c1Nc1nc(Cl)ncc1Cl
3,211 to 212 °C,COc1ccc(-n2cc(CCC(=O)NS(C)(=O)=O)c(-c3ccc(Cl)c(F)c3)n2)cc1Cl
4,86 to 88 °C,CC(C)c1cn(C(C)(C)C(=O)N(C)C)nc1-c1ccccc1Cl
5,73.5 °C,Cc1ccccc1Cc1ccc(Cl)nn1
6,144 to 145 °C,CNc1scc(C)c1C(=O)c1ccccc1
7,116 to 119 °C,CCC(O)CN1N=C(c2ccc(Cl)cc2)C2CCC2C1=O (stereo unspecified)
8,185 °C,Cc1cn(C)c2cc(C(C)C)c(Oc3cnc(N)nc3N)cc12
9,99 to 100 °C,CCc1ccc2c(C=O)c3ccccc3c(C=O)c2c1
10,220 °C,O=C(O)c1cc(=O)c2cc(-c3ccccc3)ccc2s1
11,173 to 174 °C,O=C(c1ccccc1)c1cnn2c(-c3cccc(N4CCCC4=O)c3)ccnc12
12,199 to 201 °C,CNC(=S)Nc1ccc(Oc2sc(C(N)=O)c3c2-c2c(cnn2C)CC3)cc1
13,> 300 °C,Cc1cc(N)n(C)c2nc(N)nc(=O)c1-2
14,74 to 76 °C,COC(=O)c1[nH]c(C)c(C)c1OCCCCCl
15,> 300 °C,C[C@@H](Nc1c(Nc2ccc(C#N)c(Cl)c2)c(=O)c1=O)C(C)(C)C
16,113 to 114 °C,CCCc1c(SC(=O)N(C)C)ccc2c(=O)cc(C(=O)OCC)oc12
17,103 to 107 °C,CN(C)c1nc2cc(C(F)(F)F)ccc2n1Cc1ccc(Cl)cc1
18,137 to 138 °C,COc1ccc(-c2nn(Cc3ccc(OCc4nc(-c5ccccc5)oc4C)cc3)cc2CCC(=O)O)cc1
19,175 to 176 °C,COC(=O)CC(=O)c1ccc2c(c1)CCC(=O)N2C
20,132 to 135 °C,CCOC(=O)CNC(=O)Oc1c(C)n(C)ccc1=O
21,102 to 103 °C,CCOP(=O)(CCc1ccnc(-c2nc(=O)c3ccccc3s2)c1)OCC

# From a melting point compilation (Tetko et al.; mined from patent text by program, amines drawn as free bases though some values may be those of a salt)
